Activity calls are given as the source filed them. No cut-off for these calls is given here.
Legend:
[1] = Binding affinity to complementary DNA
[2] = Binding affinity to complementary RNA

| Activity [1] | Activity [2] | SMILES |
| --- | --- | --- |
| Active | Active | Cc1cn([C@H]2C[C@H](OP(=O)(O)OC[C@H]3O[C@@H](n4ccc(N)nc4=O)[C@H](O)[C@@H]3OP(=O)(O)OC[C@H]3O[C@@H](n4cnc5c(=O)[nH]c(N)nc54)[C@H](O)[C@@H]3OP(=O)(O)OC[C@H]3O[C@@H](n4cnc5c(N)ncnc54)[C@H](O)[C@@H]3OP(=O)(O)OC[C@H]3O[C@@H](n4cnc5c(=O)[nH]c(N)nc54)[C@H](O)[C@@H]3OP(=O)(O)OC[C@H]3O[C@@H](n4ccc(N)nc4=O)[C@H](O)[C@@H]3OP(=O)(O)OC[C@H]3O[C@@H](n4cnc5c(=O)[nH]c(N)nc54)[C@H](O)[C@@H]3OP(=O)(O)OC[C@H]3O[C@@H](n4cc(C)c(=O)[nH]c4=O)C[C@@H]3OP(=O)(O)OC[C@H]3O[C@@H](n4cc(C)c(=O)[nH]c4=O)C[C@@H]3OP(=O)(O)OC[C@H]3O[C@@H](n4ccc(N)nc4=O)[C@H](O)[C@@H]3OP(=O)(O)OC[C@H]3O[C@@H](n4cc(C)c(=O)[nH]c4=O)C[C@@H]3OP(=O)(O)OC[C@H]3O[C@@H](n4ccc(N)nc4=O)[C@H](O)[C@@H]3O)[C@@H](CO)O2)c(=O)[nH]c1=O |
| Active | Active | Cc1cn([C@H]2C[C@H](OP(=O)(O)OC[C@H]3O[C@@H](n4ccc(N)nc4=O)[C@H](O)[C@@H]3OP(=O)(O)OC[C@H]3O[C@@H](n4cnc5c(=O)[nH]c(N)nc54)[C@H](O)[C@@H]3OP(=O)(O)OC[C@H]3O[C@@H](n4cnc5c(N)ncnc54)[C@H](O)[C@@H]3O)[C@@H](COP(=O)(O)O[C@H]3[C@@H](O)[C@H](n4ccc(N)nc4=O)O[C@@H]3COP(=O)(O)O[C@H]3[C@@H](O)[C@H](n4cnc5c(=O)[nH]c(N)nc54)O[C@@H]3COP(=O)(O)O[C@H]3[C@@H](O)[C@H](n4ccc(N)nc4=O)O[C@@H]3COP(=O)(O)O[C@H]3[C@@H](O)[C@H](n4cnc5c(N)ncnc54)O[C@@H]3CO)O2)c(=O)[nH]c1=O |
| inactive | inactive | Cc1cn([C@H]2C[C@H](OP(=O)(O)OC[C@H]3O[C@@H](n4ccc(N)nc4=O)[C@H](O)[C@@H]3OP(=O)(O)OC[C@H]3O[C@@H](n4cnc5c(=O)[nH]c(N)nc54)[C@H](O)[C@@H]3OP(=O)(O)OC[C@H]3O[C@@H](n4cnc5c(N)ncnc54)[C@H](O)[C@@H]3OP(=O)(O)OC[C@H]3O[C@@H](n4cnc5c(=O)[nH]c(N)nc54)[C@H](O)[C@@H]3OP(=O)(O)OC[C@H]3O[C@@H](n4ccc(N)nc4=O)[C@H](O)[C@@H]3OP(=O)(O)OC[C@H]3O[C@@H](n4cnc5c(=O)[nH]c(N)nc54)[C@H](O)[C@@H]3OP(=O)(O)OC[C@H]3O[C@@H](n4cc(C)c(=O)[nH]c4=O)C[C@@H]3OP(=O)(O)OC[C@H]3O[C@@H](n4cc(C)c(=O)[nH]c4=O)C[C@@H]3OP(=O)(O)OC[C@H]3O[C@@H](n4ccc(N)nc4=O)[C@H](O)[C@@H]3OP(=O)(O)OC[C@H]3O[C@@H](n4cc(C)c(=O)[nH]c4=O)C[C@@H]3OP(=O)(O)OC[C@H]3O[C@@H](n4ccc(N)nc4=O)[C@H](O)[C@@H]3OCCCS/C=C\SCCCOP(OC[C@H]3O[C@@H](n4cnc5c(N)ncnc54)[C@H](O)[C@@H]3OP(=O)(O)OC[C@H]3O[C@@H](n4ccc(N)nc4=O)[C@H](O)[C@@H]3OP(=O)(O)OC[C@H]3O[C@@H](n4cnc5c(=O)[nH]c(N)nc54)[C@H](O)[C@@H]3OP(=O)(O)OC[C@H]3O[C@@H](n4ccc(N)nc4=O)[C@H](O)[C@@H]3OP(=O)(O)OC[C@H]3O[C@@H](n4cc(C)c(=O)[nH]c4=O)C[C@@H]3OP(=O)(O)OC[C@H]3O[C@@H](n4ccc(N)nc4=O)[C@H](O)[C@@H]3OP(=O)(O)OC[C@H]3O[C@@H](n4cnc5c(=O)[nH]c(N)nc54)[C@H](O)[C@@H]3OP(=O)(O)OC[C@H]3O[C@@H](n4cnc5c(N)ncnc54)[C@H](O)[C@@H]3O)N(C(C)C)C(C)C)[C@@H](CO)O2)c(=O)[nH]c1=O (stereo partly specified) |

Source: ChEMBL document CHEMBL1155869, “Red light-activated phosphorothioate oligodeoxyribonucleotides” (Bioorg Med Chem Lett, 2008)
